Square brackets hold non-standard residues; d marks the D form. Peptide text beside a SMILES is read from it. ξ: configuration not given here. Nva(4-oxo) = CC(=O)C[C@H](N)C(=O)O; Pro(4-oxo) = O=C1CN[C@H](C(=O)O)C1; Hyp = O=C(O)[C@@H]1C[C@@H](O)CN1; Thr(3ξ) = CC(O)[C@H](N)C(=O)O; pGlu = O=C1CC[C@@H](C(=O)O)N1; Sar = CNCC(=O)O
Key:
[1] = system: cornea of rats with dry eye syndrome (ELGE); assay: Corneal permeability of fluorescent dye (corneal damage) in ELGE rats with dry eye syndrome; assay type: in vivo, rat; settings: 5 μl/eye twice daily, day 14
Text: (§1) In order to evaluate the eye protection effect on dry eye syndrome by YDE-001 to YDE-028 prepared in Example 1, a total of 320 Sprague-Dawley-type male rats (OrientBio, Seungnam, Korea) were adapted for 7 days. Thereafter, dry eye syndrome was induced in 264 test rats through extraorbital lacrimal gland excision (hereinafter, ELGE). 8 test rats without the eye abnormality were subjected to a sham operation as a control group.
(§2) The rat was systemically anesthetized by inhaling a mixed gas of 2% to 3% of isoflurane (Hana Pharm. Co., Hwasung, Korea), 70% of N2O, and 28.6% of O2 using a rodent anesthesia machine (Surgivet, Waukesha, Wis., USA) and a ventilator (Model 687, Harvard Apparatus, Cambridge, UK). Thereafter, the extraorbital lacrimal gland located in the subdermal area above the masseter muscle and […] was excised through a transverse incision in a size of 10 mm on the anterior part of the left ear tragus. The skin was sutured by a general method. […] After 6 days from the ELGE operation, it was checked through the Schirmer test by measuring the amount of tear secretion whether dry eye syndrome had been induced. Meanwhile, each rat of the control group with the sham operation was checked for the presence and location of the extraorbital lacrimal gland through a skin incision, and the skin was then sutured without the excision thereof (FIG. 4).
(§3) In addition, in order to evaluate the eye protection effect on dry eye syndrome by YDE-029 to YDE-043 prepared in Example 1, a total of 200 Sprague-Dawley-type male rats (OrientBio, Seungnam, Korea) were adapted for 7 days. Dry eye syndrome was induced in 165 test rats through the ELGE. 8 test rats without the eye abnormality were subjected to the sham operation as a control group. The ELGE was carried out as described above.
(§4) For YDE-001 to YDE-028, YY-102 and the 28 YDE-series were each dissolved in physiological saline at a concentration of 3 mg/ml and administered at a dose of 5 μl/eye at 9:30 am and 3:30 pm daily for 14 days after 7 days from the ELGE operation for a total of 28 times. The DS solution was dissolved in physiological saline at a concentration of 30 mg/ml and administered at a dose of […] twice a day for 14 days after 7 days from the ELGE operation for a total of 28 times. For the sham control and the ELGE control groups, the same stimulation as the administration was applied. In order to prevent excessive eye dryness, the same volume of physiological saline was applied in the same manner in place of the test substances.
as §4, with “Further, for YDE-029 to YDE-043,” for “For YDE-001 to YDE-028,”, “YDE-029 to YDE-043, YY-102 and” for “YDE-001 to YDE-028, YY-102 and”, “and the 15 YDE-series were” for “and the 28 YDE-series were”, “the test substances (FIG. 7).” for “the test substances.”
After YDE-001 to YDE-028 were each administered to the eyes […], the changes in the corneal permeability were checked.
In order to measure the corneal permeability, Zolethyl 50™ (Virbac Lab., Carros, France), an animal anesthetic, was intraperitoneally injected at a dose of 25 mg/kg. Thereafter, saline containing a 1% (v/v) fluorescent solution (fluorescein sodium salt, Tokyo Kasei Kogyo Co., Tokyo, Japan) was applied to the eyes at a dose of 5 μl/eye. The eyes thus treated were closed and fixed with a tape. After 1 hour, the remaining fluorescent solution was removed using a cotton swab (FIG. 12). […]

[2] = Stability in aqueous solution under long-term storage conditions (related substances); assay type: physicochemical; settings: 25° C., 75% RH
Procedure: In order to confirm the stability of each test substance in an aqueous solution, […] of each sample was dissolved in 1 ml of water to a concentration of 1 mg/ml, which was then charged to a glass vial, plugged with a rubber cap, sealed with an aluminum cap, and stored under long-term storage conditions (25° C., 75% RH). The stability of the test substance was evaluated by measuring the amount of related substances at the time of one week, two weeks, four weeks, eight weeks, and twelve weeks under the long-term storage conditions.

[3] = system: rats with dry eye syndrome (extraorbital lacrimal gland excision, ELGE); assay: Amount of tear secretion (Schirmer test, cobalt chloride paper) in ELGE rats with dry eye syndrome; assay type: in vivo, rat; settings: for Tear Volumes, Day 7 / Tear Volumes, Day 14: ELGE rats, 3 mg/ml, 5 μl/eye twice daily; for Tear Volumes, Day 7: day 7 of administration; for Tear Volumes, Day 14: day 14 of administration; for Change in amount of tear secretion as compared with the ELGE control group: 3% solution as printed, after administration for 14 days
Text: as §1, §2, §3, §4
as §4, with “Further, for YDE-029 to YDE-043,” for “For YDE-001 to YDE-028,”, “YDE-029 to YDE-043, YY-102 and” for “YDE-001 to YDE-028, YY-102 and”, “and the 15 YDE-series were” for “and the 28 YDE-series were”, “the test substances (FIG. 7).” for “the test substances.”
After 6 days from the ELGE surgery, the changes in the amount of tear secretion were measured at day 7 and day 14 after the administration of YDE-001 to YDE-043. The amount of tear secretion was measured by the […] travel distance of tears absorbed by cobalt chloride paper in a size of 1×15 mm (Toyo Roshi Kaisha, Japan).
The cobalt chloride paper was placed in the lateral canthus of a rat for 60 seconds to absorb tears (FIG. 9). The length of the area absorbed from the corner of the cobalt chloride paper was measured with an electronic digital caliper (Mytutoyo, Tokyo, Japan) (FIG. 8).

[4] = Table 6, study of YDE-001 to YDE-028, 3 mg/ml
[5] = Table 4, study of YDE-001 to YDE-028
[6] = Table 7, study of YDE-029 to YDE-043, 3 mg/ml
[7] = Table 5, study of YDE-029 to YDE-043

Compound	Permeability of fluorescent dye [1, 4] [%]	Amount of related substances (after 12 weeks) [2] [%]	Tear Volumes, Day 7 [3, 5] [mm^3]	Tear Volumes, Day 14 [3, 5] [mm^3]	Permeability of fluorescent dye [1, 6] [%]	Tear Volumes, Day 7 [3, 7] [mm^3]	Tear Volumes, Day 14 [3, 7] [mm^3]	Change in amount of tear secretion as compared with the ELGE control group ([3]; study of YDE-029 to YDE-043)	Change in amount of tear secretion as compared with the ELGE control group ([3]; study of YDE-001 to YDE-028)
CC(C)C[C@H](NC(=O)CNC(=O)[C@H](CCCCN)NC(=O)[C@H](CCC(N)=O)NC(=O)CNC(=O)[C@@H]1C[C@@H](O)CN1)C(=O)N[C@@H](C)C(=O)NCC(=O)N1CCC[C@H]1C(=O)N[C@@H](CCCCN)C(=O)O [YDE-005] (H-[Hyp]GQKGLAGPK-OH)	37.98 ± 11.53	2.97	3.85 ± 0.93	5.08 ± 1.91					
CC(C)C[C@H](NC(=O)CNC(=O)[C@H](CC(C)C)NC(=O)[C@H](CCC(N)=O)NC(=O)CNC(=O)[C@@H]1C[C@@H](O)CN1)C(=O)N[C@@H](C)C(=O)NCC(=O)N1CCC[C@H]1C(=O)N[C@@H](Cc1ccc(O)cc1)C(=O)O [YDE-029] (H-[Hyp]GQLGLAGPY-OH)		2.77			63.45 ± 11.57	5.33 ± 1.43	6.03 ± 1.71	did not show any significant changes	
CC(C)C[C@H](NC(=O)CNC(=O)[C@H](CC(C)C)NC(=O)[C@H](CCC(N)=O)NC(=O)CNC(=O)[C@@H]1C[C@@H](O)CN1)C(=O)N[C@@H](C)C(=O)NCC(=O)N1CCC[C@H]1C(=O)N[C@@H](CCC(N)=O)C(=O)O [YDE-032] (H-[Hyp]GQLGLAGPQ-OH)		6.16			58.90 ± 19.81	5.58 ± 0.80	5.03 ± 0.93	did not show any significant changes	
CC(=O)C[C@H](NC(=O)[C@H](CCC(N)=O)NC(=O)CNC(=O)[C@@H]1C[C@@H](O)CN1)C(=O)N(C)CC(=O)N[C@@H](CC(C)C)C(=O)N[C@@H](C)C(=O)NCC(=O)N1CCC[C@H]1C(=O)N[C@@H](CCCCN)C(=O)O [YDE-025] (H-[Hyp]GQ[Nva(4-oxo)][Sar]LAGPK-OH)	47.10 ± 11.45	5.17	3.21 ± 0.72	4.72 ± 2.19					did not show any significant changes
CC(C)C[C@H](NC(=O)CNC(=O)[C@@H](NC(=O)[C@H](CCC(N)=O)NC(=O)CNC(=O)[C@@H]1C[C@@H](O)CN1)C(C)C)C(=O)N[C@@H](C)C(=O)NCC(=O)N1CCC[C@H]1C(=O)N[C@@H](CCCCN)C(=O)O [YDE-009] (H-[Hyp]GQVGLAGPK-OH)	41.50 ± 7.86	4.71	3.76 ± 1.21	4.54 ± 1.11					did not show any significant changes
CC(C)C[C@H](NC(=O)[C@@H]1CCCN1C(=O)CNC(=O)[C@H](C)NC(=O)[C@H](CC(C)C)NC(=O)CNC(=O)[C@H](CC(C)C)NC(=O)[C@H](CCC(N)=O)NC(=O)CNC(=O)[C@@H]1C[C@@H](O)CN1)C(=O)O [YDE-030] (H-[Hyp]GQLGLAGPL-OH)		2.74			30.60 ± 13.61	5.69 ± 1.79	6.65 ± 2.17	did not show any significant changes	
CC(C)C[C@H](NC(=O)CNC(=O)[C@H](CC(C)C)NC(=O)[C@H](CCC(N)=O)NC(=O)CNC(=O)[C@@H]1CC(=O)CN1)C(=O)N[C@@H](C)C(=O)NCC(=O)N1CCC[C@H]1C(=O)N[C@@H](CCCCN)C(=O)O [YDE-035] (H-[Pro(4-oxo)]GQLGLAGPK-OH)		3.89			27.62 ± 6.51	4.96 ± 0.96	6.25 ± 0.79		
CC(C)C[C@H](NC(=O)CNC(=O)[C@H](CC(C)C)NC(=O)[C@H](CCC(N)=O)NC(=O)CNC(=O)[C@@H]1CCC(=O)N1)C(=O)N[C@@H](C)C(=O)NCC(=O)N1CCC[C@H]1C(=O)N[C@@H](CCCCN)C(=O)O [YDE-036] ([pGlu]GQLGLAGPK-OH)		8.77			57.87 ± 22.91	4.95 ± 1.05	5.13 ± 1.03	did not show any significant changes	
CC(C)C[C@H](NC(=O)CNC(=O)[C@H](CC(C)C)NC(=O)[C@H](CCC(N)=O)NC(=O)CNC(=O)[C@@H]1C[C@@H](O)CN1)C(=O)N[C@@H](C)C(=O)O [YDE-041] (H-[Hyp]GQLGLA-OH)		3.04			46.38 ± 26.65	5.01 ± 1.26	6.25 ± 2.15	did not show any significant changes	
CC(C)C[C@H](NC(=O)CNC(=O)[C@@H](NC(=O)[C@H](CCC(N)=O)NC(=O)CNC(=O)[C@@H]1C[C@@H](O)CN1)C(C)O)C(=O)N[C@@H](C)C(=O)NCC(=O)N1CCC[C@H]1C(=O)N[C@@H](CCCCN)C(=O)O (some centres unmarked) [YDE-007] (H-[Hyp]GQ[Thr(3ξ)]GLAGPK-OH)	32.79 ± 10.77	3.76	3.91 ± 1.28	5.45 ± 1.26					
